Data published in US20090012085A1, “DOSAGE FORMS AND METHODS OF TREATMENT USING A TYROSINE KINASE INHIBITOR” (priority 2005, published 2009).
Where two headings read alike, the source gives them in different places.

Experiment: Phase I dose-escalating study, plasma pharmacokinetics in patients with solid tumor
Assay type: in vivo, human
Settings: for concentration at 6 h / concentration at 8 h / concentration at 10 h / concentration at 0 h / concentration at 1 h / concentration at 2 h / concentration at 3 h / concentration at 4 h / concentration at 20 h / concentration at 24 h / concentration at 48 h / concentration at 72 h / concentration at 96 h / concentration at 144 h / AUC(0-t) / Cmax / Tmax / half-life: human, plasma; for concentration at 6 h: nominal time 6 h; for concentration at 8 h: nominal time 8 h; for concentration at 10 h: nominal time 10 h; for concentration at 0 h: nominal time 0 h; for concentration at 1 h: nominal time 1 h; for concentration at 2 h: nominal time 2 h; for concentration at 3 h: nominal time 3 h; for concentration at 4 h: nominal time 4 h; for concentration at 20 h: nominal time 20 h; for concentration at 48 h: nominal time 48 h; for concentration at 72 h: nominal time 72 h; for concentration at 96 h: nominal time 96 h; for concentration at 144 h: nominal time 144 h; for AUC(0-t): read-out: AUC(0-24), mean (% CV); for Cmax: read-out: Cmax, mean (% CV); for Tmax: read-out: tmax, mean (% CV); for half-life: read-out: t½, mean (% CV) (converted)
Protocol: Cmax values, or maximum total plasma concentrations, of a compound of formula 1 can be measured according to techniques well known to those skilled in the art. For example, after a compound of formula 1 has been administered to a mammal, blood samples can be taken at fixed time points over a period of time (e.g. 24 hours) and the serum or plasma concentration of compound of formula 1 can be measured using standard analytical techniques known in the art. In vivo determinations Cmax can then be made by plotting the serum or plasma concentration of compound of formula 1 along the ordinate (y-axis) against time along the abscissa (x-axis).
The maleate salt of compound 1 was administered to human patients with solid tumor malignancies not amenable to conventional therapies in a Phase I dose-escalating multicenter study. The types of tumor malignancies included colorectal carcinoma, renal cell carcinoma, esophageal carcinoma, thymus carcinoma, mastocytosis, lung cancer and multiple endocrine neoplasia type II. Patients were treated in cohorts of 6 with escalating QD (once per day) doses of the maleate salt of compound 1 under fasting conditions. Each study cycle of 5 weeks consisted of 4 weeks of treatment followed by 1 week of rest (4/1 schedule), or continuous dosing without any rest period.
Full pharmacokinetic profiles were collected on Cycle 1 Day 1 (C1D1), Cycle 1 Day 28 (C1D28), and Cycle 2 Day 28 (C2D28). Preliminary pharmacokinetic parameters for the first 44 patients, i.e. the first 7 dosing groups, were estimated using nominal collection times and quality-controlled, non-quality assured bioanalytical data. The dosage amounts in Table 1A and Table 1B are free base equivalent amounts.

[1] = 25 mg QD, 25 mg QD 4/1 (n = 6), read-out: Mean plasma concentration following the last dose on cycle 1 day 28
[2] = 25 mg, 25 mg QD 4/1 (n = 6), read-out: Mean plasma concentration following the last dose on cycle 1 day 28
[3] = 25 mg, 25 mg QD (4/1), C1D1 (n = 6)
[4] = 25 mg, 25 mg QD (4/1), C1D28 (n = 6)
[5] = 25 mg, 25 mg QD (4/1), C2D28 (n = 5)
[6] = 50 mg QD, 50 mg QD 4/1 (n = 5), read-out: Mean plasma concentration following the last dose on cycle 1 day 28
[7] = 50 mg, 50 mg QD 4/1 (n = 5), read-out: Mean plasma concentration following the last dose on cycle 1 day 28
[8] = 50 mg, 50 mg QD (4/1), C1D1 (n = 6)
[9] = 50 mg, 50 mg QD (4/1), C1D28 (n = 5)
[10] = 50 mg, 50 mg QD (4/1), C2D28 (n = 3)
[11] = 100 mg QD, 100 mg QD 4/1 (n = 6), read-out: Mean plasma concentration following the last dose on cycle 1 day 28
[12] = 100 mg QD, 100 mg QD Continuous (n = 4), read-out: Mean plasma concentration following the last dose on cycle 1 day 28
[13] = 100 mg, 100 mg QD 4/1 (n = 6), read-out: Mean plasma concentration following the last dose on cycle 1 day 28
[14] = 100 mg, 100 mg QD (4/1), C1D1 (n = 7)
[15] = 100 mg, 100 mg QD (4/1), C1D28 (n = 6)
[16] = 100 mg, 100 mg QD (4/1), C2D28 (n = 4)
[17] = 100 mg, 100 mg QD (continuous), C1D1 (n = 6)
[18] = 100 mg, 100 mg QD (continuous), C1D28 (n = 6)
[19] = 100 mg, 100 mg QD (continuous), C2D28 (n = 4)
[20] = 100 mg, 100 mg QD Continuous (n = 4), read-out: Mean plasma concentration following the last dose on cycle 1 day 28

- drug accumulation in plasma from cycle 1 to cycle 2 (100 mg QD continuous, Cmax and AUC0-24 of C1D28 vs C2D28): no drug accumulation
- time of the longer elimination phase after dosing (4/1 schedule, after the last dose on Day 28): about 72 hours
- change in the overall plasma elimination profile (across the 25- to 250-mg groups): no change
- time of absorption after dosing (administered in the fasted state): ≤ 6 h
- dose linearity of pharmacokinetics (first 44 patients, 25 to 250 mg): generally dose-linear pharmacokinetics
- concentration at 6 h [1]: 50.3 ng/mL
- concentration at 8 h [1]: 41.3 ng/mL
- concentration at 10 h [1]: 36.8 ng/mL
- concentration at 0 h [2]: 22.2 ng/mL
- concentration at 1 h [2]: 50.1 ng/mL
- concentration at 2 h [2]: 46.7 ng/mL
- concentration at 3 h [2]: 47 ng/mL
- concentration at 4 h [2]: 58.3 ng/mL
- concentration at 20 h [2]: 19.5 ng/mL
- concentration at 24 h (25 mg, 25 mg QD 4/1 (n = 6), nominal time 24 h, read-out: Mean plasma concentration following the last dose on cycle 1 day 28): 21.1 ng/mL
- concentration at 48 h [2]: 6.24 ng/mL
- concentration at 72 h [2]: 2.61 ng/mL
- concentration at 96 h [2]: 1.58 ng/mL
- concentration at 144 h [2]: 0.63 ng/mL
- AUC(0-t) [3]: 547 ng·h/mL
- concentration at 24 h (25 mg, 25 mg QD (4/1), C1D1 (n = 6), read-out: C(trough, 24 h), mean (% CV)): 13.8 ng/mL
- Cmax [3]: 55.1 ng/mL
- Tmax [3]: 2.8 h
- half-life [3]: 11.9 h
- AUC(0-t) [4]: 809 ng·h/mL
- concentration at 24 h (25 mg, 25 mg QD (4/1), C1D28 (n = 6), read-out: C(trough, 24 h), mean (% CV)): 21.1 ng/mL
- Cmax [4]: 72.9 ng/mL
- Tmax [4]: 2.7 h
- half-life [4]: 24.8 h
- Cmax [5]: 61.8 ng/mL
- Tmax [5]: 3.2 h
- half-life [5]: 17.7 h
- concentration at 3 h [6]: 85.6 ng/mL
- concentration at 6 h [6]: 71.3 ng/mL
- concentration at 8 h [6]: 68.6 ng/mL
- concentration at 10 h [6]: 59.4 ng/mL
- concentration at 0 h [7]: 37.2 ng/mL
- concentration at 1 h [7]: 72.3 ng/mL
- concentration at 2 h [7]: 84.5 ng/mL
- concentration at 4 h [7]: 81.1 ng/mL
- concentration at 20 h [7]: 30.5 ng/mL
- concentration at 24 h (50 mg, 50 mg QD 4/1 (n = 5), nominal time 24 h, read-out: Mean plasma concentration following the last dose on cycle 1 day 28): 24.3 ng/mL
- concentration at 48 h [7]: 25.4 ng/mL
- concentration at 72 h [7]: 7.89 ng/mL
- concentration at 96 h [7]: 17 ng/mL
- concentration at 144 h [7]: 3.27 ng/mL
- AUC(0-t) [8]: 888 ng·h/mL
- concentration at 24 h (50 mg, 50 mg QD (4/1), C1D1 (n = 6), read-out: C(trough, 24 h), mean (% CV)): 20.8 ng/mL
- Cmax [8]: 84.6 ng/mL
- Tmax [8]: 2.8 h
- half-life [8]: 10.8 h
- AUC(0-t) [9]: 1350 ng·h/mL
- concentration at 24 h (50 mg, 50 mg QD (4/1), C1D28 (n = 5), read-out: C(trough, 24 h), mean (% CV)): 50.8 ng/mL
- Cmax [9]: 126 ng/mL
- Tmax [9]: 6.6 h
- half-life [9]: 24 h
- AUC(0-t) [10]: 1790 ng·h/mL
- concentration at 24 h (50 mg, 50 mg QD (4/1), C2D28 (n = 3), read-out: C(trough, 24 h), mean (% CV)): 44.2 ng/mL
- Cmax [10]: 173 ng/mL
- Tmax [10]: 3.3 h
- half-life [10]: 18.9 h
- concentration at 3 h [11]: 337 ng/mL
- concentration at 4 h [11]: 344 ng/mL
- concentration at 6 h [11]: 312 ng/mL
- concentration at 8 h [11]: 261 ng/mL
- concentration at 10 h [11]: 208 ng/mL
- concentration at 3 h [12]: 460 ng/mL
- concentration at 4 h [12]: 560 ng/mL
- concentration at 6 h [12]: 707 ng/mL
- concentration at 8 h [12]: 395 ng/mL
- concentration at 10 h [12]: 566 ng/mL
- concentration at 0 h [13]: 121 ng/mL
- concentration at 1 h [13]: 218 ng/mL
- concentration at 2 h [13]: 326 ng/mL
- concentration at 20 h [13]: 311 ng/mL
- concentration at 24 h (100 mg, 100 mg QD 4/1 (n = 6), nominal time 24 h, read-out: Mean plasma concentration following the last dose on cycle 1 day 28): 111 ng/mL
- concentration at 48 h [13]: 60.8 ng/mL
- concentration at 72 h [13]: 16.1 ng/mL
- concentration at 96 h [13]: 9.96 ng/mL
- concentration at 144 h [13]: 2.94 ng/mL
- AUC(0-t) [14]: 2480 ng·h/mL
- concentration at 24 h (100 mg, 100 mg QD (4/1), C1D1 (n = 7), read-out: C(trough, 24 h), mean (% CV)): 86.8 ng/mL
- Cmax [14]: 270 ng/mL
- Tmax [14]: 2.6 h
- half-life [14]: 12.5 h
- AUC(0-t) [15]: 6050 ng·h/mL
- concentration at 24 h (100 mg, 100 mg QD (4/1), C1D28 (n = 6), read-out: C(trough, 24 h), mean (% CV)): 111 ng/mL
- Cmax [15]: 413 ng/mL
- Tmax [15]: 2.7 h
- half-life [15]: 22 h
- AUC(0-t) [16]: 2800 ng·h/mL
- concentration at 24 h (100 mg, 100 mg QD (4/1), C2D28 (n = 4), read-out: C(trough, 24 h), mean (% CV)): 156 ng/mL
- Cmax [16]: 181 ng/mL
- Tmax [16]: 13.5 h
- half-life [16]: 23 h
- AUC(0-t) [17]: 1800 ng·h/mL
- concentration at 24 h (100 mg, 100 mg QD (continuous), C1D1 (n = 6), read-out: C(trough, 24 h), mean (% CV)): 34.1 ng/mL
- Cmax [17]: 171 ng/mL
- Tmax [17]: 4.3 h
- half-life [17]: 12.9 h
- AUC(0-t) [18]: 2990 ng·h/mL
- concentration at 24 h (100 mg, 100 mg QD (continuous), C1D28 (n = 6), read-out: C(trough, 24 h), mean (% CV)): 63 ng/mL
- Cmax [18]: 255 ng/mL
- Tmax [18]: 3.3 h
- half-life [18]: 11.4 h
- AUC(0-t) [19]: 3230 ng·h/mL
- concentration at 24 h (100 mg, 100 mg QD (continuous), C2D28 (n = 4), read-out: C(trough, 24 h), mean (% CV)): 62.8 ng/mL
- Cmax [19]: 250 ng/mL
- Tmax [19]: 3.7 h
- half-life [19]: 13.8 h
- concentration at 0 h [20]: 284 ng/mL
- concentration at 1 h [20]: 232 ng/mL
- concentration at 2 h [20]: 524 ng/mL
- concentration at 20 h [20]: 265 ng/mL
- concentration at 24 h (100 mg, 100 mg QD Continuous (n = 4), nominal time 24 h, read-out: Mean plasma concentration following the last dose on cycle 1 day 28): 246 ng/mL
Structure (SMILES): Cc1[nH]c(/C=C2\C(=O)Nc3ccc(F)cc32)c(C)c1C(=O)NC[C@H](O)CN1CCOCC1 [compound 1, 5-[(Z)-(5-fluoro-2-oxo-1,2-dihydro-3H-indol-3-ylidene)methyl]-N-[(2S)-2-hydroxy-3-morpholin-4-ylpropyl]-2,4-dimethyl-1H-pyrrole-3-carboxamide]
